In patent US12617777B2, “GPR84 antagonists and uses thereof” (Liminal BioSciences Limited, priority 2021, dated 2026):

How the values were obtained:
[1] = system: mouse dextran sodium sulfate-induced chronic inflammatory bowel disease model; conditions: once-daily doses of 3 and 10 mg/kg; efficacy similar to sulfasalazine; cited from earlier work
human GPR84 receptor = target: T1, human GPR84 receptor (Homo sapiens, UniProt Q9NQS5); experiment: Gαi biosensor BRET assay in HEK293 cells (antagonism of ZQ-16); assay type: cell-based; conditions: for IC50: HEK293 cells, antagonism of 200 nmol/L ZQ-16; for inhibition at 2 µM: HEK293, single concentration 2 μM (designated A); for inhibition at 5 µM: HEK293, single concentration 5 μM (designated D)
T1 construct: host or cells: HEK293, transient transfection
How it was run: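 HEK293 cells transiently expressing human GPR84, Gαi2-Rluc8, GFP10-Gγ2 and Gβ1, in Tyrode's buffer pH 7.5. Compounds preincubated 5 min at 37° C, then 200 nmol/L ZQ-16 for 5 min at room temperature; coelenterazine 400A 5 μmol/L. BRET2 acceptor/donor ratio, background- and vehicle-corrected net BRET.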

neutrophils = experiment: Neutrophil migration assay (embelin as chemotactic agent, ATPlite readout); assay type: cell-based; conditions: for IC50: Neutrophil, human neutrophils, embelin as chemotactic agent, read-out: Human Neutrophil migration inhibition IC50; for Human Neutrophil migration inhibition - fold potency to Control Compound: normalized to GPR84 antagonist Control Compound (average IC50 131 nM)
How it was run: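 Isolated neutrophils (8.9×10^6 cells/ml in DMEM + 10 mM HEPES) preincubated with compound 30 min at 37 °C, then allowed to migrate 60 min at 37 °C through 5 μm-pore transwells toward embelin. Migrated cells quantified by ATPlite luminescence; results normalized for donor variation.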

T1 sequence (Q9NQS5 whole entry): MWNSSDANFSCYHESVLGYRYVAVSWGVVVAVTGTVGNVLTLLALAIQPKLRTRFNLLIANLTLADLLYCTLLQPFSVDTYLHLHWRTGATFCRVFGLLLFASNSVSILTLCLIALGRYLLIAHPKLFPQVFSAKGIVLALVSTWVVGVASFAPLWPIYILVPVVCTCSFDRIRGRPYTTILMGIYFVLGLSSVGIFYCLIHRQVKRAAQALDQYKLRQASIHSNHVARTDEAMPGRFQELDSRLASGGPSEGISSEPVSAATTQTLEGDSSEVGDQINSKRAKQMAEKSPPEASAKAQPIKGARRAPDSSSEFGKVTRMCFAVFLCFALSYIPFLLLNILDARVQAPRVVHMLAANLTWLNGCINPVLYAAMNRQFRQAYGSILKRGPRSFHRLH

Row | SMILES | disease activity index score [1] | neutrophil infiltration [1] | inhibition at 25 µM (human GPR84 receptor; HEK293, single concentration 25 μM (designated I)) [%] | IC50 (human GPR84 receptor) [nM] | IC50 (neutrophils) [nM] | Human Neutrophil migration inhibition - fold potency to Control Compound (neutrophils) | inhibition at 2 µM (human GPR84 receptor) [%] | inhibition at 5 µM (human GPR84 receptor) [%]
1 | O=c1nc(OC[C@@H]2COCCO2)cc2n1CCc1cc(C#CC3CC3)ccc1-2 [GLPG1205] | reduced | reduced |  |  |  |  |  | 
2 | Cc1cc(N2CC(C)(C)C2)ccc1-c1cn(CC2CCCCO2)nn1 (stereo not drawn) [Compound I-75] |  |  | > 75 | 300 to 1000 | ≤ 300 | B (IC50 of >0.5-≤1.0-fold relative to Control Compound) |  | 
3 | CC(C)Oc1cc(C#CC2CC2)cnc1-c1cn(CC2OCC(C)(C)CO2)nn1 [Compound I-651] |  |  |  | ≤ 300 | ≤ 300 | A (IC50 of >1.0-fold relative to Control Compound) | > 75 | 
4 | COC(c1cn(CC2CCCCO2)nn1)c1cc(C#CC2CC2)ccc1C (stereo not drawn) [Compound I-417] |  |  |  | 300 to 1000 | ≤ 300 | A (IC50 of >1.0-fold relative to Control Compound) | > 75 | 
5 | Cc1cc(C#CCNc2ccccc2)ccc1-c1cn(CC2CCCCO2)nn1 (stereo not drawn) [Compound I-68] |  |  |  | 1000 to 3000 | 300 to 1000 | B (IC50 of >0.5-≤1.0-fold relative to Control Compound) |  | 50 to 75
6 | Cc1cc(C#CCN(C)Cc2ccccc2)ccc1-c1cn(CC2CCCCO2)nn1 (stereo not drawn) [Compound I-76] |  |  |  | 300 to 1000 | ≤ 300 | B (IC50 of >0.5-≤1.0-fold relative to Control Compound) |  | > 75
7 | CCc1cc(C#CC2CC2)ccc1-c1cn(CC2CCCCO2)nn1 (stereo not drawn) [Compound I-77] |  |  |  | 300 to 1000 | ≤ 300 | A (IC50 of >1.0-fold relative to Control Compound) |  | > 75
8 | Cc1ccc(C#CC2CC2)cc1Cc1nnn(CC2CCCCO2)n1 (stereo not drawn) [Compound I-418] |  |  |  | 300 to 1000 | 1000 to 3000 | C (IC50≤0.5-fold relative to Control Compound) | > 75 | 
